Source: patent publication EP0106335B1, “Pharmaceutical composition and a method for enhancing the absorption of a pharmaceutically active compound” (Tanabe Seiyaku Co., Ltd., priority 1982, dated 1984)

Experiment: Absorption enhancing effect of co-administered diltiazem hydrochloride on plasma drug concentration after oral administration (Experiment 1)
Type: in vivo
Settings: male beagle dogs fasted for 24 hours
Procedure: Male beagle dogs (body weight: 12 to 14 kg; one group: 3 to 8 beagle dogs) fasted for 24 hours were used in each groups. A drug having an absolute bioavailability of not more than 20 % and diltiazem hydrochloride were administered orally to the beagle dogs. After one week intervals, the drug only was administered orally to the same beagle dogs. The plasma drug concentration was examined at intervals by TCL densito metry if the drug was timepidium bromide; or by high-peformance liquid chromatography if the drug was tipepidine hibenzate or carbazochrome sodium sulfate. Based on the results obtained above, the absorption enhancing effect of diltiazem hydrochloride was calculated by the following formula; [formula]

`CN1C2=CC(=O)C(=NNC(N)=O)C=C2CC1S(=O)(=O)O` (stereo not drawn) [Carbazochrome sodium sulfonate, 1-methyl-5-semicarbazono-6-oxo-2,3,5,6-tetrahydroindole-2-sulfonic acid] gave an Absorption enhancing effect (drug 100 mg with diltiazem hydrochloride 60 mg versus drug only, plasma drug concentration by high-performance liquid chromatography) of 1.9.
Compound `COC1CC(=C(c2cccs2)c2cccs2)C[N+](C)(C)C1` (stereo not drawn) [Timepidium bromide, 1,1-dimethyl-5-methoxy-3-(dithien-2-yl-methylene)-piperidinium halide] has an Absorption enhancing effect (drug 300 mg with diltiazem hydrochloride 30 mg versus drug only, plasma drug concentration by TLC densitometry) of 2.3.
Work on `CN1CCCC(=C(c2cccs2)c2cccs2)C1` [Tipepidine hibenzate, 3-(di-2-thienylmethylene)-1-methylpiperidine] yielded an Absorption enhancing effect (drug 50 mg with diltiazem hydrochloride 60 mg versus drug only, plasma drug concentration by high-performance liquid chromatography) of 2.1.
